For 33 compounds, IC50 results are on record in patent US10865191B2, “Heterocyclic compounds useful as modulators of TNF alpha” (BRISTOL-MYERS SQUIBB COMPANY, priority 2015, dated 2020).

Some results are limits rather than exact numbers.

TNFα, sequence (P01375 77-233 limits assumed): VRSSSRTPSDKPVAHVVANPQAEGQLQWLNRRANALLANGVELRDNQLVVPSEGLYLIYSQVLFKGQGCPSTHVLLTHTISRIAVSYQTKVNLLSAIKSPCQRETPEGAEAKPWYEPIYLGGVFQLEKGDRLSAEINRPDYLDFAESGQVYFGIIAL

One experiment addresses TNFα (Homo sapiens, UniProt P01375). As to the kind of experiment: TNF induced HEK-Blue assay (NF-kB-driven secreted alkaline phosphatase reporter). The format is cell-based. Conditions: TNF induced HEK-Blue assay IC50 value, TNFα 0.5 ng/mL, HEK-Blue-CD40L cells, 18 h. A digest of the protocol:
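HEK-Blue-CD40L cells (NF-kB-driven SEAP reporter), 20,000/well, added after 30 min pre-incubation of compound (0.004–25 μM final) with TNFα 0.5 ng/mL final at 37 °C; 18 h incubation. SEAP read with QUANTI-Blue at 620 nm; IC50 from 4-parameter logistic fit, normalized to unstimulated and stimulated DMSO controls.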
Take `C[C@@H](Nc1c(Cl)cnc2ccc(-c3cnc(C(C)(C)O)nc3)cc12)c1ccccc1` [Example 154, (R)-2-(5-(3-chloro-4-((1-phenylethyl)amino)quinolin-6-yl)pyrimidin-2-yl)propan-2-ol]: the IC50 was less than 1000 nM.
On the same count and under the same terms, the figure for `CC(C)C(Nc1c(Cl)cnc2ccc(-c3cnc(C(C)(C)O)nc3)cc12)c1ccccc1F` (stereo not drawn) [Example 189, 2-(5-(3-chloro-4-((1-(2-fluorophenyl)-2-methylpropyl)amino)quinolin-6-yl)pyrimidin-2-yl)propan-2-ol] is less than 1000 nM; for `C[C@@H](Nc1c(Cl)cnc2ccc(-c3cnc(C(C)(C)O)nc3)cc12)c1ccccc1F` [Example 217, (R)-2-(5-(3-chloro-4-(1-(2-fluorophenyl)ethylamino)quinolin-6-yl)pyrimidin-2-yl)propan-2-ol] it is less than 1000 nM.
The same measure, in the same setting: the figure for `C[C@@H](Nc1c(Cl)cnc2ccc(-c3ccc(S(C)(=O)=O)nc3)cc12)c1ccccc1F` [Example 221, (R)-3-chloro-N-(1-(2-fluorophenyl)ethyl)-6-(6-(methylsulfonyl)pyridin-3-yl)quinolin-4-amine] is less than 1000 nM; for `CCOc1ncc(-c2ccc3ncc(Cl)c(N[C@H](C)c4ccccc4F)c3c2)cn1` [Example 222, (R)-3-chloro-6-(2-ethoxypyrimidin-5-yl)-N-(1-(2-fluorophenyl)ethyl)quinolin-4-amine] it is less than 1000 nM; for `C[C@@H](Nc1c(Cl)cnc2ccc(-c3cnc(N4CCS(=O)(=O)CC4)nc3)cc12)c1ccccc1F` [Example 225, (R)-4-(5-(3-chloro-4-((1-(2-fluorophenyl)ethyl)amino)quinolin-6-yl)pyrimidin-2-yl)thiomorpholine 1,1-dioxide] it is less than 1000 nM.
In the case of `C[C@@H](Nc1c(Cl)cnc2ccc(-c3ccc(C(C)(C)O)cc3)cc12)c1ccccc1F` [Example 228, (R)-2-(4-(3-chloro-4-((1-(2-fluorophenyl)ethyl)amino)quinolin-6-yl)phenyl)propan-2-ol], the IC50 is less than 1000 nM.

Still in this experiment, the particulars now being: TNFα 0.5 ng/mL, HEK-Blue-CD40L cells, 18 h; read-out: TNF induced HEK-Blue assay IC50 value.
For `CC(C)(O)c1ncc(-c2ccc3ncc(Cl)c(NCc4ccccc4C(F)(F)F)c3c2)cn1` [Example 146, 2-(5-(3-chloro-4-((2-(trifluoromethyl)benzyl)amino)quinolin-6-yl)pyrimidin-2-yl)propan-2-ol], the IC50 was less than 1000 nM.
The same measure, in the same setting: the figure for `CC(C)(O)c1ncc(-c2ccc3ncc(Cl)c(NCc4ccc(OC(F)F)cc4)c3c2)cn1` [Example 148, 2-(5-(3-chloro-4-((4-(difluoromethoxy)benzyl)amino)quinolin-6-yl)pyrimidin-2-yl)propan-2-ol] is 1000 to 10000 nM; for `CC(C)(O)c1ncc(-c2ccc3ncc(Cl)c(NC4(c5ccccc5F)CC4)c3c2)cn1` [Example 158, 2-(5-(3-chloro-4-((1-(2-fluorophenyl)cyclopropyl)amino)quinolin-6-yl)pyrimidin-2-yl)propan-2-ol] it is less than 1000 nM; for `CC(C)(O)c1ncc(-c2ccc3ncc(Cl)c(NC4(c5ccccc5)CC4)c3c2)cn1` [Example 161, 2-(5-(3-chloro-4-((1-phenylcyclopropyl)amino)quinolin-6-yl)pyrimidin-2-yl)propan-2-ol] it is 1000 to 10000 nM.
On the same count and under the same terms, the figure for `COc1nc2ccc(-c3cnc(C(C)(C)O)nc3)cc2c(Nc2cc(C)ccc2C)c1C` [Example 180, 2-(5-(4-(2,5-dimethylphenylamino)-2-methoxy-3-methylquinolin-6-yl)pyrimidin-2-yl)propan-2-ol] is 10000 to 25000 nM.
The same measure, in the same setting: for `Cc1ccc(C)c(Nc2c(C)c(O)nc3ccc(-c4cnc(C(C)(C)O)nc4)cc23)c1` [Example 181, 4-((2,5-dimethylphenyl)amino)-6-(2-(2-hydroxypropan-2-yl)pyrimidin-5-yl)-3-methylquinolin-2-ol] the value was 10000 to 25000 nM; for `CC(C)(O)c1ncc(-c2ccc3ncc(Cl)c(NC(C)(C)c4cccc(C(F)(F)F)c4)c3c2)cn1` [Example 182, 2-(5-(3-chloro-4-((2-(3-(trifluoromethyl)phenyl)propan-2-yl)amino)quinolin-6-yl)pyrimidin-2-yl)propan-2-ol], 10000 to 25000 nM.
Turning to `Cc1ccc(C)c(Nc2c(F)c(C)nc3ccc(-c4cnc(C(C)(C)O)nc4)cc23)c1` [Example 183, 2-(5-(4-((2,5-dimethylphenyl)amino)-3-fluoro-2-methylquinolin-6-yl)pyrimidin-2-yl)propan-2-ol], the IC50 is less than 1000 nM.
The same measure, in the same setting: for `Cc1ccc(C)c(Nc2c(C)c(C)nc3ccc(-c4cnc(C(C)(C)O)nc4)cc23)c1` [Example 184, 2-(5-(4-((2,5-dimethylphenyl)amino)-2,3-dimethylquinolin-6-yl)pyrimidin-2-yl)propan-2-ol] the value was less than 1000 nM; for `CC(C)(O)c1ncc(-c2ccc3ncc(Cl)c(NC(C)(C)c4ccc(C(F)(F)F)cc4)c3c2)cn1` [Example 185, 2-(5-(3-chloro-4-((2-(4-(trifluoromethyl)phenyl)propan-2-yl)amino)quinolin-6-yl)pyrimidin-2-yl)propan-2-ol], 10000 to 25000 nM; for `CNC(=O)c1ccc(-c2ccc3nc(C)c(F)c(Nc4cc(C)ccc4C)c3c2)cn1` [Example 186, 5-(4-((2,5-dimethylphenyl)amino)-3-fluoro-2-methylquinolin-6-yl)-N-methylpicolinamide], 10000 to 25000 nM.
In the case of `Cc1ccc(C)c(Nc2c(F)c(C)nc3ccc(-c4cnc(N5CCN(CC(=O)O)CC5)nc4)cc23)c1` [Example 187, 2-(4-(5-(4-((2,5-dimethylphenyl)amino)-3-fluoro-2-methylquinolin-6-yl)pyrimidin-2-yl)piperazin-1-yl)acetic acid], the IC50 was less than 1000 nM.
On the same count and under the same terms, the figure for `C=Cc1ccc(F)c([C@@H](C)Nc2c(Cl)cnc3cc(F)c(-c4cnc(C(C)(C)O)nc4)nc23)c1` [Example 188, (R)-2-(5-(7-chloro-3-fluoro-8-((1-(2-fluoro-5-vinylphenyl)ethyl)amino)-1,5-naphthyridin-2-yl)pyrimidin-2-yl)propan-2-ol] is less than 1000 nM; for `C[C@@H](Nc1c(Cl)cnc2cc(F)c(-c3cnc(C(C)(C)O)nc3)nc12)c1ccccc1` [Example 193, (R)-2-(5-(7-chloro-3-fluoro-8-((1-phenylethyl)amino)-1,5-naphthyridin-2-yl)pyrimidin-2-yl)propan-2-ol] it is less than 1000 nM.
On the same count and under the same terms, the figure for `CC(C)(O)c1ncc(-c2nc3c(N[C@@H](c4ccccc4F)C(F)F)c(Cl)cnc3cc2F)cn1` [Example 207, (S)-2-(5-(7-chloro-8-((2,2-difluoro-1-(2-fluorophenyl)ethyl)amino)-3-fluoro-1,5-naphthyridin-2-yl)pyrimidin-2-yl)propan-2-ol] is less than 1000 nM.
Still for that read-out and setting: for `C[C@H](Nc1c(Cl)cnc2cc(F)c(-c3cnc(C(C)(C)O)nc3)nc12)c1ccccc1` [Example 208, (S)-2-(5-(7-chloro-3-fluoro-8-((1-phenylethyl)amino)-1,5-naphthyridin-2-yl)pyrimidin-2-yl)propan-2-ol] the value was less than 1000 nM.
In the case of `Cc1nc2cc(F)c(-c3cnc(C(C)(C)O)nc3)nc2c(N[C@H](C)c2ccccc2)c1Cl` [Example 213, (R)-2-(5-(7-chloro-3-fluoro-6-methyl-8-((1-phenylethyl)amino)-1,5-naphthyridin-2-yl)pyrimidin-2-yl)propan-2-ol], the IC50 was less than 1000 nM.
The same measure, in the same setting: the figure for `C=Cc1ccc(F)c([C@@H](Nc2c(Cl)cnc3cc(F)c(-c4cnc(C(C)(C)O)nc4)nc23)C(F)F)c1` [Example 215, (R)-2-(5-(7-chloro-8-((2,2-difluoro-1-(2-fluoro-5-vinylphenyl)ethyl)amino)-3-fluoro-1,5-naphthyridin-2-yl)pyrimidin-2-yl)propan-2-ol] is less than 1000 nM.
Regarding `C[C@@H](Nc1c(Cl)cnc2ccc(-c3cnc(N4CCOCC4)nc3)cc12)c1ccccc1F` [Example 219, (R)-3-chloro-N-(1-(2-fluorophenyl)ethyl)-6-(2-morpholinopyrimidin-5-yl)quinolin-4-amine], the IC50 was less than 1000 nM.
The same measure, in the same setting: the figure for `C[C@@H](Nc1c(Cl)cnc2ccc(-c3ccc(CO)cc3)cc12)c1ccccc1F` [Example 220, (R)-(4-(3-chloro-4-((1-(2-fluorophenyl)ethyl)amino)quinolin-6-yl)phenyl)methanol] is 10000 to 25000 nM; for `CCc1ncc(-c2ccc3ncc(Cl)c(N[C@H](C)c4ccccc4F)c3c2)cn1` [Example 223, (R)-3-chloro-6-(2-ethylpyrimidin-5-yl)-N-(1-(2-fluorophenyl)ethyl) quinolin-4-amine] it is 10000 to 25000 nM.
Same read-out and setting: the figure for `COC(=O)CN1CCN(c2ncc(-c3ccc4ncc(Cl)c(N[C@H](C)c5ccccc5F)c4c3)cn2)CC1` [Example 224] is less than 1000 nM; for `C[C@@H](Nc1c(Cl)cnc2ccc(-c3cnc(N4CCNC(=O)C4)nc3)cc12)c1ccccc1F` [Example 226, (R)-4-(5-(3-chloro-4-((1-(2-fluorophenyl)ethyl)amino)quinolin-6-yl)pyrimidin-2-yl)piperazin-2-one] it is less than 1000 nM; for `C[C@@H](Nc1c(Cl)cnc2ccc(-c3cnc(C4(O)COC4)nc3)cc12)c1ccccc1F` [Example 227, (R)-3-(5-(3-chloro-4-((1-(2-fluorophenyl)ethyl)amino)quinolin-6-yl)pyrimidin-2-yl)oxetan-3-ol] it is less than 1000 nM.
The same measure, in the same setting: the figure for `C[C@@H](Nc1c(Cl)cnc2ccc(-c3cnc(N4CCN(CC#N)CC4)nc3)cc12)c1ccccc1F` [Example 233, (R)-2-(4-(5-(3-chloro-4-((1-(2-fluorophenyl)ethyl)amino)quinolin-6-yl)pyrimidin-2-yl)piperazin-1-yl)acetonitrile] is less than 1000 nM; for `C[C@@H](Nc1c(Cl)cnc2ccc(-c3cnc(N4CCN(Cc5nn[nH]n5)CC4)nc3)cc12)c1ccccc1F` [Example 237, (R)-6-(2-(4-((2H-tetrazol-5-yl)methyl)piperazin-1-yl)pyrimidin-5-yl)-3-chloro-N-(1-(2-fluorophenyl)ethyl)quinolin-4-amine] it is less than 1000 nM.

Usually IC50 stands for the concentration that inhibits the measured activity by half.
